ChEMBL document CHEMBL1154600, “Knowledge-based characterization of similarity relationships in the human protein-tyrosine phosphatase family for rational inhibitor design” (J Med Chem, 2009)

Key:
[1] = molecular target: Receptor-type tyrosine-protein phosphatase alpha (Homo sapiens, UniProt P18433); test: Inhibition of PTPRA
[2] = molecular target: Receptor-type tyrosine-protein phosphatase epsilon (Homo sapiens, UniProt P23469)
[3] = molecular target: Tyrosine-protein phosphatase non-receptor type 6 (Homo sapiens, UniProt P29350)
Sequence of Tyrosine-protein phosphatase non-receptor type 6 (P29350 whole entry): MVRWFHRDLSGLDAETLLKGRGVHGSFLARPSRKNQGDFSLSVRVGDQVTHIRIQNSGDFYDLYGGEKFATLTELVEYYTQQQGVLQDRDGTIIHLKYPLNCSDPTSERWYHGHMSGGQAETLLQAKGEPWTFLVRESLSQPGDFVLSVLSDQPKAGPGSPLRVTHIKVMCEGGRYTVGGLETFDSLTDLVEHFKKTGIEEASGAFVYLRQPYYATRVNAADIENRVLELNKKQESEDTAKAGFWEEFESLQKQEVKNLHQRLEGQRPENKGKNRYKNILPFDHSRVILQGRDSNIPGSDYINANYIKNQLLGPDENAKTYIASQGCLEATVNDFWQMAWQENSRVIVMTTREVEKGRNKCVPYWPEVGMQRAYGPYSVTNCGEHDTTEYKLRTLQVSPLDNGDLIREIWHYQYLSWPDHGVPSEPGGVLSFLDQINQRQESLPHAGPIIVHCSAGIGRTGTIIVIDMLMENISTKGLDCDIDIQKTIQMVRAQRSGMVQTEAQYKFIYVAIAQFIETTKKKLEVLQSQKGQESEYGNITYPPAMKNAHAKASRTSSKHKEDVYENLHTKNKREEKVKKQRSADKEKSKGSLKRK

[4] = molecular target: T1, Tyrosine-protein phosphatase non-receptor type 2 (Homo sapiens, UniProt P17706)
T1 sequence (P17706 whole entry): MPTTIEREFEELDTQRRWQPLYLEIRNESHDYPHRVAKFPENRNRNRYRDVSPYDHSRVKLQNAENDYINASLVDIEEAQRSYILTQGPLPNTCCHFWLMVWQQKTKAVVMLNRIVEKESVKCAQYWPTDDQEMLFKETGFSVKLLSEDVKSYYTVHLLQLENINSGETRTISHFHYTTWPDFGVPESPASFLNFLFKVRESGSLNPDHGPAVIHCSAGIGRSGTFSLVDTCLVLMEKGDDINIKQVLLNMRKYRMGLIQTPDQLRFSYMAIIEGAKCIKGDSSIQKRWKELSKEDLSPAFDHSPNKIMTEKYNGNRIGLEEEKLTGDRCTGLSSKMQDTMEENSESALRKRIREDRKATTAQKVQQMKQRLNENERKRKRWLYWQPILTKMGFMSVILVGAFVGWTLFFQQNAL

[5] = molecular target: Receptor-type tyrosine-protein phosphatase F (Homo sapiens, UniProt P10586); test: Inhibition of PTPRF
Sequence of Receptor-type tyrosine-protein phosphatase F (P10586 whole entry): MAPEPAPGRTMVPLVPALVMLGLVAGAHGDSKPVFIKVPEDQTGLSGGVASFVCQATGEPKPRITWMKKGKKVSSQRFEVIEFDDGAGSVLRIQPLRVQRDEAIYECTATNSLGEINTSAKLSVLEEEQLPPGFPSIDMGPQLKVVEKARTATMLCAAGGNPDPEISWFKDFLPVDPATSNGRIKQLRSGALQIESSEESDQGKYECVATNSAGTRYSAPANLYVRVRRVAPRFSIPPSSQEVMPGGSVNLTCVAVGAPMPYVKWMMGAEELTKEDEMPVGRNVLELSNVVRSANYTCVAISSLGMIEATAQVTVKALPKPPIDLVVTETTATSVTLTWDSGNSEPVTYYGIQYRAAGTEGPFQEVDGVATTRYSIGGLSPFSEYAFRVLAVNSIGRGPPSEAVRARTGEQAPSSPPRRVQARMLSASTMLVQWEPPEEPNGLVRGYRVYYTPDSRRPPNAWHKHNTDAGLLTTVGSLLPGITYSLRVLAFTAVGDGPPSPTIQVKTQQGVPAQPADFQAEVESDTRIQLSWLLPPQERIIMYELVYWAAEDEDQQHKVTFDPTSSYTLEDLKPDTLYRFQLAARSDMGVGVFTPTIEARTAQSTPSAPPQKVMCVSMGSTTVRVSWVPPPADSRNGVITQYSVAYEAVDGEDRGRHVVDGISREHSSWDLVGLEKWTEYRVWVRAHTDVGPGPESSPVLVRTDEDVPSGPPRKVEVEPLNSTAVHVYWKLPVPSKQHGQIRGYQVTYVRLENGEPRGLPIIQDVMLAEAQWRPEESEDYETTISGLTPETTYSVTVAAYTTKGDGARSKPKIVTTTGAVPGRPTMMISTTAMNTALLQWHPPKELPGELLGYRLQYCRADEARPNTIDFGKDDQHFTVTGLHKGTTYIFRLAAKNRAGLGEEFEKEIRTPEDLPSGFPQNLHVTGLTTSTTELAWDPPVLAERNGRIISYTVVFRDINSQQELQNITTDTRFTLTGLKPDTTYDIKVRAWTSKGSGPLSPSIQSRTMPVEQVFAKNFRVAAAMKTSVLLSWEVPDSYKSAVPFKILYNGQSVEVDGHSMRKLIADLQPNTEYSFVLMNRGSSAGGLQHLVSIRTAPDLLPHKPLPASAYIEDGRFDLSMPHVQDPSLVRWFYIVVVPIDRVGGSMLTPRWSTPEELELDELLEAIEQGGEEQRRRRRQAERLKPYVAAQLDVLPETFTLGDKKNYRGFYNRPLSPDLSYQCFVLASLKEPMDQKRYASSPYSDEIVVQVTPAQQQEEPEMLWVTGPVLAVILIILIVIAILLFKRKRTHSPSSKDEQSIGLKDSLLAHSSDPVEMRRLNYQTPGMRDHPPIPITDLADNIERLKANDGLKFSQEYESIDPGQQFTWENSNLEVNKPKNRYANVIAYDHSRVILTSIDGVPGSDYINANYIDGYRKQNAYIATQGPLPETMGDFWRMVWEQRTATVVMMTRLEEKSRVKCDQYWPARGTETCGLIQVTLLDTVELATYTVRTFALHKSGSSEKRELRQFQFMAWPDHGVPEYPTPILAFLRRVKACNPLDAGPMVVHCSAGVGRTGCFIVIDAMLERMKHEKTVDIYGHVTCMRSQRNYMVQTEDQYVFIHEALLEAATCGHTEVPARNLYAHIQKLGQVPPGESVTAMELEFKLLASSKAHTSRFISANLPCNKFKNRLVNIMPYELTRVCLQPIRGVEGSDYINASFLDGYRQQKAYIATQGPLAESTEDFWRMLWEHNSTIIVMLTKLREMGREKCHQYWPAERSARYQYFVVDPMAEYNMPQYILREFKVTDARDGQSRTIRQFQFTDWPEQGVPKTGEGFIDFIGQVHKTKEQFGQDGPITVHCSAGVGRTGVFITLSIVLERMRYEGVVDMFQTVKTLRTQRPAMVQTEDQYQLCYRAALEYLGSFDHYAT

[6] = molecular target: T2, Receptor-type tyrosine-protein phosphatase C (Homo sapiens, UniProt P08575); test: Inhibition of PTPRC
T2 sequence (P08575 whole entry): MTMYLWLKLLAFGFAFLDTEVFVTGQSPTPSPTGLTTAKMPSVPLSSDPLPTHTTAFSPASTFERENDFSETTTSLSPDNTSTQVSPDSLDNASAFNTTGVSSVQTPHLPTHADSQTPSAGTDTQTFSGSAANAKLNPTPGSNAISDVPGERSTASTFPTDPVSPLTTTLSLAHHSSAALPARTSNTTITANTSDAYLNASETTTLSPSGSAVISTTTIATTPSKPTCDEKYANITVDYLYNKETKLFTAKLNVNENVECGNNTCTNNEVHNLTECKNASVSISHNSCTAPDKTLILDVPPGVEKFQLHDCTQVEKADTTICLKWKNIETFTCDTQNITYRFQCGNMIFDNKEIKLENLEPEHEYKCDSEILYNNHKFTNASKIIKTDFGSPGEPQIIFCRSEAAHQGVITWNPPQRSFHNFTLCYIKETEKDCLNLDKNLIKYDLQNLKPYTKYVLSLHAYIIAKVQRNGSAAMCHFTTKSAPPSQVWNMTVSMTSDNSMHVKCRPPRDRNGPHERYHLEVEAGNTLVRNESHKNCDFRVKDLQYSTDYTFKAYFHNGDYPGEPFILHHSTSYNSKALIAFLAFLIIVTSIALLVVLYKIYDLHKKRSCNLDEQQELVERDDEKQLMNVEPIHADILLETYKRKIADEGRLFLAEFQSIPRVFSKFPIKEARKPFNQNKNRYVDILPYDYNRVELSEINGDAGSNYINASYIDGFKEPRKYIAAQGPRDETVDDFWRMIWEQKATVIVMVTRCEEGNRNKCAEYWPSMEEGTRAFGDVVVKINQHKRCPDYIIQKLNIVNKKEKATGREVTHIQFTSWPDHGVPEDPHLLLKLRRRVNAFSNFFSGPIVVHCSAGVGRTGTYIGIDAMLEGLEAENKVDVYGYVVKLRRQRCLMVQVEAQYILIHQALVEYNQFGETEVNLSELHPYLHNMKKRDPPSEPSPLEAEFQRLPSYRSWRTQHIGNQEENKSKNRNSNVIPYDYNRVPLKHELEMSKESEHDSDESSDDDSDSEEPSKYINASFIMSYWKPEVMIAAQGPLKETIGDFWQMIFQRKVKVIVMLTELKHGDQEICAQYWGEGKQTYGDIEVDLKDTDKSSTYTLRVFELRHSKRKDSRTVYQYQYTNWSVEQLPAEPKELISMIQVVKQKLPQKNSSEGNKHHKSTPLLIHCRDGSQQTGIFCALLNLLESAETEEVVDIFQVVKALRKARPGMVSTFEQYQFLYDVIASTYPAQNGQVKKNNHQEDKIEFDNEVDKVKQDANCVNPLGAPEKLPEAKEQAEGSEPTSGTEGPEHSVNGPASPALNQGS

[7] = molecular target: Receptor-type tyrosine-protein phosphatase beta (Homo sapiens, UniProt P23467); test: Inhibition of PTPRB
[8] = molecular target: Tyrosine-protein phosphatase non-receptor type 2 (Homo sapiens) (UniProt P17706); test: Inhibition of PTPN2

Sequence of Receptor-type tyrosine-protein phosphatase epsilon (P23469 whole entry): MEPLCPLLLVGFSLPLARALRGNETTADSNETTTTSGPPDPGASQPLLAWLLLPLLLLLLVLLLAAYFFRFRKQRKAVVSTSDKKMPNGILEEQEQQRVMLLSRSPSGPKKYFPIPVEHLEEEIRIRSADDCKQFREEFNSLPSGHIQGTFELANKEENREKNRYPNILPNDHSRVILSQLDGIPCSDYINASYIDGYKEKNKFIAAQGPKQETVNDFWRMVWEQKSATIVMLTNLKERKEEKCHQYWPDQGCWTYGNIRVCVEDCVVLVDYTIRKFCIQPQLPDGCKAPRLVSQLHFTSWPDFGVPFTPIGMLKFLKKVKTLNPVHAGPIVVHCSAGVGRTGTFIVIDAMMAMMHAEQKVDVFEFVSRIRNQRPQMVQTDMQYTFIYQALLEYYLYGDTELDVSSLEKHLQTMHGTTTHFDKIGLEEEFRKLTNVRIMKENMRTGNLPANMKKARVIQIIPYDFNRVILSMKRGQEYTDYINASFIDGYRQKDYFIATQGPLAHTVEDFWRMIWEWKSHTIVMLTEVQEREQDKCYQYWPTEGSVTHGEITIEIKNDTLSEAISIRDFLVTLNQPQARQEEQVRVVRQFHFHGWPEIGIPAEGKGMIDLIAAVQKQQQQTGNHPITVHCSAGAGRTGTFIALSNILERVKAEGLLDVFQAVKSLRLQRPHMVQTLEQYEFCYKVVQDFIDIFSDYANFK
Sequence of Receptor-type tyrosine-protein phosphatase alpha (P18433 whole entry): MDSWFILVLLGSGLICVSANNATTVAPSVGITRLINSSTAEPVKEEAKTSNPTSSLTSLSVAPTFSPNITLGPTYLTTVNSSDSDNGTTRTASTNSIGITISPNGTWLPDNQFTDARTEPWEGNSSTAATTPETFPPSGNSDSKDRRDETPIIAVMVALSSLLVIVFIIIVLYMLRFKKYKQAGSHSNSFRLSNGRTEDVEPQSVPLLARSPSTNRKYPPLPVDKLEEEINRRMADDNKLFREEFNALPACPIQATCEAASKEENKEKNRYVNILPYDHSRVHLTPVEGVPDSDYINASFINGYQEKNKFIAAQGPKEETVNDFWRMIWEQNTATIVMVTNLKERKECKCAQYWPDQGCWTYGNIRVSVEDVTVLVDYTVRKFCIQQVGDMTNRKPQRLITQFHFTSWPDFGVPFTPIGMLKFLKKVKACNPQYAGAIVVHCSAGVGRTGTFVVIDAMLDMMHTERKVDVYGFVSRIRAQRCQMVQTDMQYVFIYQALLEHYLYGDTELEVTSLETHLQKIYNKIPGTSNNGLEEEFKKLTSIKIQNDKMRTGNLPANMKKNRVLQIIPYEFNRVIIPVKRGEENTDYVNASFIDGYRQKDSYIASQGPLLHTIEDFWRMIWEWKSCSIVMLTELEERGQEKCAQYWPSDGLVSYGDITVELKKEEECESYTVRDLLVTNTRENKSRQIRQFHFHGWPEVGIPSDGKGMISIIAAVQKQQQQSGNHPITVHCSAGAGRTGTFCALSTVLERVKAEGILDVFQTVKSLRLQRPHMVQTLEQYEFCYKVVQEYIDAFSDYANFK

Compound	Ki [1] [µM]	Ki [2] [µM]	Ki [3] [µM]	Ki [4] [µM]	Ki [5] [µM]	Ki [6] [µM]	Ki [7] [µM]	Ki [8] [µM]
O=C(O)C(=O)Nc1cc2ccccc2cc1C(O)O	190	45	94	9.9	68	37	14	
O=C(O)C(=O)Nc1ccsc1C(=O)O	> 2000	360		58		260		
O=C(O)C(=O)Nc1sc2c(c1C(=O)O)CCNC2		1100	> 2000	0.29		59	560	
O=C(O)COc1c(C(=O)O)sc2c1sc1ccccc12				9.2	1100	> 1250		4.1
O=C(O)COc1c(C(=O)O)sc(-c2ccccc2)c1Br					> 500			
CC1(C)CC(Nc2cccc(-c3sc(C(=O)O)c(OCC(=O)O)c3Br)c2)CC(C)(C)C1					> 1000			
O=C(O)C(=O)Nc1ccc2cc[nH]c2c1C(=O)O	180	33	28	8	450	20	3.6	
O=C(O)C(=O)Nc1sccc1C(=O)O		740		62		210		
O=C(O)C(=O)Nc1ccc(I)cc1C(=O)O		33	80	14		49	17	
O=C(O)C(=O)Nc1sc2c(c1C(=O)O)CCO[C@H]2COC1=NS(=O)(=O)c2ccccc21	> 500	> 500	289	0.6	176	489	21	1.1
O=C(O)C(=O)Nc1cc2[nH]ccc2cc1C(=O)O	800	66	16	14	550	56	6	
O=C(O)C(=O)Nc1ccccc1C(=O)O		130	510				33	
O=C(O)C(=O)Nc1sc2c(c1C(=O)O)CCCC2			100			41	19	
